# Results taken from PMC11320734 (ACS Pharmacology & Translational Science, 2024).
# Several values for one entry are separate records, joined by “and”; a condition that tells them apart may be missing. Equal values may be shown once. Read-outs that look alike come from different tables or passages of the source.
# Assays:
# [1] = Lyophilization solubility assay (LYSA); format: physicochemical; conditions: aqueous buffer, thermodynamic from solid; kinetic, phosphate buffer pH 6.5
# Experimental: For the determination of the octanol/water distribution coefficient (logD), the carrier-mediated distribution system (CAMDIS)-assay was used as described elsewhere.[38] Kinetic and thermodynamic solubilities were assessed using the lyophilization solubility assay (LYSA) and thermodynamic solubility assay (THESA), respectively. For the LYSA, the solubility of RNB- 61 in phosphate buffer at pH 6.5 from an evaporated 10 mM DMSO compound stock solution was measured. Two aliquots of the test compounds were dried and dissolved in phosphate buffer at pH 6.5. The solutions were then filtered and diluted (3 different dilution levels for each compound) before high throughput mass spectrometry (MS) analysis was performed in an Agilent RapidFire system. Each test compound was quantified using a 6-point calibration curve prepared with the same DMSO starting solution. For THESA, RNB-61 (8.6 mg per mL solvent/vehicle) was stirred in HPLC vials (9 × 12 × 32 mm, Waters) at 350 rpm for 15 h. The presence of solid particles was determined by microscopic analysis of 10 μL samples. If the active pharmacological ingredient (API) was completely dissolved, more solid API was added before stirring for another 15 h. This step was repeated for up to 96 h or until residual solid particles could be detected. […] The filtrates were diluted in ethanol and analyzed by ultra-performance liquid chromatography (UPLC). […]
# human wild type CB2R [2] = biological target: T1, human wild type CB2R (Homo sapiens, UniProt P34972); assay: [35S]GTPγS binding assay (G-protein activation); format: biochemical; parameters: host or cells: CHO cells (Pathhunter)
# T1 sequence (P34972 whole entry): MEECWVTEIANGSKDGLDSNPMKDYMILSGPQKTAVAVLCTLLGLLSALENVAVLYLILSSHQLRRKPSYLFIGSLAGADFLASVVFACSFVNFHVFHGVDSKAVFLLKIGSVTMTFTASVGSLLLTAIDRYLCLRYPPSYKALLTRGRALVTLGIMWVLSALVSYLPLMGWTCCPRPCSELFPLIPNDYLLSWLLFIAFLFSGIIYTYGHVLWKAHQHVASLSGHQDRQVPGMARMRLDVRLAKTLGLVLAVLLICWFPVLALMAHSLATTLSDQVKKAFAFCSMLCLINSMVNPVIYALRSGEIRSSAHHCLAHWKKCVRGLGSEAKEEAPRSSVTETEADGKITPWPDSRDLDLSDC
# cynomolgus CB2R = cynomolgus CB2R (Macaca fascicularis, UniProt G7NVV5); assay: cAMP assay in CHO cells; format: cell-based; conditions: mean ± SD; read-out: EC50 cAMP assay, monkey CB2R
# Sequence of cynomolgus CB2R (G7NVV5 1-360): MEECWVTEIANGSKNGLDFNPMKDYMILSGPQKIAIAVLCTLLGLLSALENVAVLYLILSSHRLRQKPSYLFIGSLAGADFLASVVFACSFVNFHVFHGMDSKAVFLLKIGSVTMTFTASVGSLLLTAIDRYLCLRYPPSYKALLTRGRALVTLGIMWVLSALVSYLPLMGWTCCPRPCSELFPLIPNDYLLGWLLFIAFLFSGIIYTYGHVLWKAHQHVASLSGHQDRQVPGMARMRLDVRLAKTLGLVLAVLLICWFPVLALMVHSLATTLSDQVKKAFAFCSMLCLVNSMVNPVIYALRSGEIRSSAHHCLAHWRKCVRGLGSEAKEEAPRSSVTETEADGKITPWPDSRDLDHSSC
# rat CB2R = biological target: T2, rat CB2R (Rattus norvegicus, UniProt Q9QZN9); assay: cAMP assay in CHO cells; format: cell-based; conditions: mean ± SD
# T2 construct: expressed in transfected cells; host or cells: CHO cells
# T2 sequence (Q9QZN9 whole entry): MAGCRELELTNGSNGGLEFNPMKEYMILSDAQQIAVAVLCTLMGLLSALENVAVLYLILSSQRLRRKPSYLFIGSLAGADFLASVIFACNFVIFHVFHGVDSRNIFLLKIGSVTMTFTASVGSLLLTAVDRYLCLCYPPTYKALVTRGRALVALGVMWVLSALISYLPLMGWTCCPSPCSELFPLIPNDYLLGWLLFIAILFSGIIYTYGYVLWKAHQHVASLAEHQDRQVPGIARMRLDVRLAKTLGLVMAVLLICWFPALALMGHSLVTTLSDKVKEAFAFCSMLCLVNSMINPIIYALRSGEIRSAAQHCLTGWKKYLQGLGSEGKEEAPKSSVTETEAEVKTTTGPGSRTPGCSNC
# pKa = format: physicochemical; conditions: basic nitrogen N1 of the pyrazole ring
# human wild type CB2R [3] = biological target: T1, human wild type CB2R; assay: cAMP assay in CHO cells; format: cell-based; parameters: expressed in transfected cells; host or cells: CHO cells
# FAAH = FAAH (Homo sapiens, UniProt O00519); assay: Endocannabinoid target profiling: FAAH; format: biochemical; conditions: screening concentration 10 μM
# Sequence of FAAH (O00519 whole entry): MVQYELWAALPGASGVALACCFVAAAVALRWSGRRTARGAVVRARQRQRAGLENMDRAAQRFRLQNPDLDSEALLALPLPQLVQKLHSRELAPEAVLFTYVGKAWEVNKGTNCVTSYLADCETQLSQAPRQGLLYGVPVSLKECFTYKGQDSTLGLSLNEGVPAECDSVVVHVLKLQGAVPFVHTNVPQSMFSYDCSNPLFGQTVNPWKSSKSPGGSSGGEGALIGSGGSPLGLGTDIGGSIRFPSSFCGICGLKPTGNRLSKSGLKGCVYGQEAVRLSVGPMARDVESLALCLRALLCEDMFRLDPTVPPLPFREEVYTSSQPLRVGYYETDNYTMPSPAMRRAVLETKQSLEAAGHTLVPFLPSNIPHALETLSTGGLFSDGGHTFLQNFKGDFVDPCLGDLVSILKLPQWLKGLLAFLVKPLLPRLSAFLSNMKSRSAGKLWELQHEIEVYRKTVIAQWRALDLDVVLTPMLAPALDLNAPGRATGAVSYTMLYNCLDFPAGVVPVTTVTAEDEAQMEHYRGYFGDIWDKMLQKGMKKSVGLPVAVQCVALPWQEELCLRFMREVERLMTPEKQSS
# [4] = system: UUO-induced kidney fibrosis; assay: Unilateral ureteral obstruction (UUO) model of kidney fibrosis; format: in vivo, Sprague–Dawley rats
# Experimental: In the ischemia/reperfusion (I/R) model of acute kidney injury (AKI),[47],[48] the compounds were administered orally by gavage to C57BL/6 mice 30 min before ischemia obtained by clamping both renal arteries and veins for 25 min, followed by 24 h of reperfusion. Mice were anesthetized using xylazine (10 mg kg^–1)/ketamine (100 mg kg^–1) injected intraperitoneally. Sham treated mice were treated identically except for the temporary closure of the renal vessels. After 24 h, under reanesthesia, plasma was taken for biomarker analysis. Thereafter, mice still in deep anesthesia were sacrificed by cervical dislocation. Creatinine, BUN (blood urea nitrogen), NGAL (neutrophil gelatinase-associated lipocalin), osteopontin, and KIM1 (kidney injury molecule-1) levels were determined using the following commercially available standard assays: creatinine: Roche Diagnostics 03263991, BUN: Roche Diagnostics 04460715, NGAL: BioPorto, Kit046 + Kit042, osteopontin: R&D Systems, MOST00, KIM-1: Abnova, KA1064. To assess fibrotic effects, we used the unilateral ureteral obstruction (UOO) model in Sprague–Dawley rats.[49] For the UOO model, rats were sacrificed after 5, 8, and 11 days and the percentage of PicroSirius Red positive areas (indicator of collagen III–I deposition) were measured in 4 μm histological cross sections of the kidney after 2% paraformaldehyde perfusion fixation and paraffin embedding. The extend of kidney fibrosis was quantified based on PicroSirius Red staining of 10 renal sections about 1 mm apart from each kidney. The collagen–III-I-positive pixel counts were determined in the cortical aspect of each kidney section from 10 optical fields using a 40× objective. As the total area analyzed was identical for all kidneys under investigation, the absolute number of pixels was used as the relevant readout. Vehicle treated animals received saline gavage only. The details of PicroSirius Red staining were previously described.[22]
# CYP450 2C9 = biological target: T3, CYP450 2C9 (Homo sapiens, UniProt P11712); assay: CYP inhibition in pooled human liver microsomes; format: in vitro ADME
# T3 construct: pooled human liver microsomes; from tissue; host or cells: pooled human liver microsomes
# T3 sequence (P11712 whole entry): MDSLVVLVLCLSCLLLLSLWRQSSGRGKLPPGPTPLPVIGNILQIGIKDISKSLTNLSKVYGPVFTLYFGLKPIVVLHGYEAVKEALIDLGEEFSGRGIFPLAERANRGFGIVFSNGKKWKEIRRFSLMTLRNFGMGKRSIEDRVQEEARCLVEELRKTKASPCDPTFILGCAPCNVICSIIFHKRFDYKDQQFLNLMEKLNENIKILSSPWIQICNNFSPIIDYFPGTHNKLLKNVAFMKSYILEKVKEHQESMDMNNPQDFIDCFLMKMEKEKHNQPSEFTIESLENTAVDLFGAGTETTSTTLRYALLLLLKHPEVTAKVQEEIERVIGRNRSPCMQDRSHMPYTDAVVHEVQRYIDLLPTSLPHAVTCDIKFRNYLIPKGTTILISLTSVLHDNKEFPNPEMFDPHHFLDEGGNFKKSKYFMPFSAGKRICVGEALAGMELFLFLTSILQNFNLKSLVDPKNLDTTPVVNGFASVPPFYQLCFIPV
# Experimental: (§1) Cytochrome P450 (CYP) assays were conducted as previously described.[41] In brief, RNB-61 was incubated at a range of concentrations with the following components: pooled human liver microsomes, CYP probe substrate around the reported Km, and NADPH with a final concentration: 1 mM in 100 mM sodium phosphate buffer (pH 7.4). The conditions were optimized for a linear metabolic rate for the probe substrate reactions. The analysis of the samples was carried out by LC-MS/MS. The assays generated two endpoints: IC50 (μM) and percent inhibition at the highest acceptable test concentration (typically 50 μM; lower if the highest concentration data are rejected due to insolubility). […] (GSH) adduct formation data was assessed as reported in a previous study.[42] Briefly, RNB-61 was incubated with human liver microsomes to form reactive metabolites, and glutathione was added as a nucleophile to convert the reactive metabolites into stable conjugates that could be analyzed by MS.
# CYP450 3A4 = biological target: T4, CYP450 3A4 (Homo sapiens, UniProt P08684); assay: CYP inhibition in pooled human liver microsomes; format: in vitro ADME
# T4 construct: pooled human liver microsomes; from tissue; host or cells: pooled human liver microsomes
# T4 sequence (P08684 whole entry): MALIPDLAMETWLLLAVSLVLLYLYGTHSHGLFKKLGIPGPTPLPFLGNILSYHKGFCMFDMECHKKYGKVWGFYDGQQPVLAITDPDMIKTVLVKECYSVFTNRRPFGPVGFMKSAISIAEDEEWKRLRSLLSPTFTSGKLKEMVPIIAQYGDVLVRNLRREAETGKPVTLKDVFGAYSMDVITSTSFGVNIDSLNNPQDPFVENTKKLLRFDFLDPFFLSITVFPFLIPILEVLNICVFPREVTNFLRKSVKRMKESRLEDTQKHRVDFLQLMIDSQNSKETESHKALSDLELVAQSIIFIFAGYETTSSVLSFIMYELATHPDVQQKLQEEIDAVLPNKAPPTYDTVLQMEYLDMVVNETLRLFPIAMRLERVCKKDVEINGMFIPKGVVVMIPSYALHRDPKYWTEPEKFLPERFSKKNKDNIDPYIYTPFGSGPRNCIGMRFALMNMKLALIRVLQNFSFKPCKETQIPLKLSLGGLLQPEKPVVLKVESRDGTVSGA
# Experimental: as §1
# CYP450 2D6 = biological target: T5, CYP450 2D6 (Homo sapiens, UniProt P10635); assay: CYP inhibition in pooled human liver microsomes; format: in vitro ADME
# T5 construct: pooled human liver microsomes; from tissue; host or cells: pooled human liver microsomes
# T5 sequence (P10635 whole entry): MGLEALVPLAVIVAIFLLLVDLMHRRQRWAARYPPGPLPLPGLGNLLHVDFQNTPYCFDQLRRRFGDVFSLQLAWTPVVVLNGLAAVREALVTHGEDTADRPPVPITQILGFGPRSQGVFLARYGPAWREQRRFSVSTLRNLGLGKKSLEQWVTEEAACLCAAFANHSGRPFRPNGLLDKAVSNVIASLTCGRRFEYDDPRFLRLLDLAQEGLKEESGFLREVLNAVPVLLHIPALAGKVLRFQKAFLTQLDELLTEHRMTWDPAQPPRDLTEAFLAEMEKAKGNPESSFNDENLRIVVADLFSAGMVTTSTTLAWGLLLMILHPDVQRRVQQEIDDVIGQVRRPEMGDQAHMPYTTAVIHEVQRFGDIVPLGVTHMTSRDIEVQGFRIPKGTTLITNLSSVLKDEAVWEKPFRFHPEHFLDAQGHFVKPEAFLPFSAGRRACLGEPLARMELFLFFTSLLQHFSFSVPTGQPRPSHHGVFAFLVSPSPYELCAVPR
# Experimental: as §1
# 80 additional receptors = assay: CEREP off-target binding screen
# [5] = expressed as percentage, compared with CP55,940
smiles,measurement,setting,value
Cn1c(C(C)(C)C)cc(=NC(=O)c2cc(C(F)(F)F)ccc2OCC(C)(C)O)n1CC1CCC1 [RNB-61],solubility,[1],0.194 mg/mL
same,EC50,human wild type CB2R [2]; Figure 2,0.33 nM and 1.65 nM
same,Emax,human wild type CB2R [2]; [5],100%
same,Emax [35S]GTPγS binding,human wild type CB2R [2]; [5],"same efficacy (Emax) as CP55,940"
same,EC50,cynomolgus CB2R,0.7 ± 0.03 nM
same,EC50,rat CB2R,0.13 ± 0.07 nM
same,pKa,pKa,7.33
same,pKa,pKa; read-out: pKa,7.37
same,Emax,"human wild type CB2R [3]; CHO, percentage normalized to 1 μM CP55940, read-out: Emax cAMP inhibition",100%
same,EC50,"human wild type CB2R [3]; Table 1, mean ± SD, read-out: EC50 hCB2R (cAMP assay)",0.31 ± 0.07 nM
same,Emax cAMP inhibition,"human wild type CB2R [3]; percentage normalized to 1 μM CP55940, listed as RBN-61","same efficacy (Emax) as CP55,940"
same,inhibition of EC hydrolysis by FAAH,FAAH,did not inhibit
same,inhibition of accumulation of collagen–III-I,"[4]; 3 mg kg^–1, day 8",61%
same,collagen–III-I positive area vs vehicle,"[4]; all three doses (printed 0.3, 3, and 3 mg kg^–1), day 8",significant reduction
same,IC50,CYP450 2C9,50000 nM
same,IC50,CYP450 3A4,35500 nM
same,IC50,CYP450 2D6,15500 nM
same,binding to 80 additional receptors (significant = ≥50% of probe displacement),"80 additional receptors; 10 μM, most receptors, exception Na+ channel site 2",no significant binding
same,interaction with 80 additional receptor targets (significant = >50% inhibition),80 additional receptors; up to 1 μM,no significant interaction
